Tests used:
primary CD14+ monocytes = assay: IL-1β production of monocytes stimulated with increased extracellular Ca2+ plus TLR ligand; format: cell-based, human
Experimental: FIGS. 3c and 3d show IL-1β release of primary CD14^+ monocytes in response to increasing extracellular calcium concentration alone (c) or to increased [Ca^2+] in combination with LPS (100 ng/ml) (d) after 16 h of stimulation. The bar underneath the x axis represents the physiological range of the extracellular ionized Ca^2+ concentration (1.2 mM).
The following TLR ligands (human TLR1-9 Agonist Kit, InvivoGen) were used at the following concentrations: TLR1/2 agonist—Pam3CSK4 (1 μg/ml), TLR2 agonist—heat-killed preparation of Listeria monocytogenes (10^8 cells/ml), TLR3 agonist—Poly(I:C) (10 μg/ml), TLR4 agonist—E. coli K12 LPS (100 ng/ml), TLR5 agonist—S. typhimurium flagellin (1 μg/ml), TLR6/2 agonist—FSL1 (1 μg/ml), TLR7 agonist—Imiquimod (1 μg/ml), TLR8 agonist—ssRNA40 (1 μg/ml) and TLR9 agonist—CpG ODN2006 (5 μM). […]
In all experiments shown in FIGS. 3 and 4, IL-1β concentrations were determined in the supernatant by ELISA.
Human and murine IL-1β were measured by commercially available enzyme-immunoassay following the manufacturer's protocol. […]
LPS (Escherichia coli 0111:B4 ultrapure, 100 ng/ml, Invivogen) was used at a concentration of 100 ng/ml. […] Final Ca^2+ ion concentrations in the media were measured after anaerobic sampling (sealed blood gas syringes were completely filled under an CO2 atmosphere, and were closed with caps to avoid loss of CO2) on an ABL 730 (Radiometer). […]

GPRC6A = GPRC6A (Mus musculus, UniProt Q8K4Z6); settings: wild type mice; Aluminum Lactate 0.3 mg/100 ml with Carrageenan 1 g/100 ml vs Carrageenan alone; p<0.001
Chain of GPRC6A (Q8K4Z6 21-928): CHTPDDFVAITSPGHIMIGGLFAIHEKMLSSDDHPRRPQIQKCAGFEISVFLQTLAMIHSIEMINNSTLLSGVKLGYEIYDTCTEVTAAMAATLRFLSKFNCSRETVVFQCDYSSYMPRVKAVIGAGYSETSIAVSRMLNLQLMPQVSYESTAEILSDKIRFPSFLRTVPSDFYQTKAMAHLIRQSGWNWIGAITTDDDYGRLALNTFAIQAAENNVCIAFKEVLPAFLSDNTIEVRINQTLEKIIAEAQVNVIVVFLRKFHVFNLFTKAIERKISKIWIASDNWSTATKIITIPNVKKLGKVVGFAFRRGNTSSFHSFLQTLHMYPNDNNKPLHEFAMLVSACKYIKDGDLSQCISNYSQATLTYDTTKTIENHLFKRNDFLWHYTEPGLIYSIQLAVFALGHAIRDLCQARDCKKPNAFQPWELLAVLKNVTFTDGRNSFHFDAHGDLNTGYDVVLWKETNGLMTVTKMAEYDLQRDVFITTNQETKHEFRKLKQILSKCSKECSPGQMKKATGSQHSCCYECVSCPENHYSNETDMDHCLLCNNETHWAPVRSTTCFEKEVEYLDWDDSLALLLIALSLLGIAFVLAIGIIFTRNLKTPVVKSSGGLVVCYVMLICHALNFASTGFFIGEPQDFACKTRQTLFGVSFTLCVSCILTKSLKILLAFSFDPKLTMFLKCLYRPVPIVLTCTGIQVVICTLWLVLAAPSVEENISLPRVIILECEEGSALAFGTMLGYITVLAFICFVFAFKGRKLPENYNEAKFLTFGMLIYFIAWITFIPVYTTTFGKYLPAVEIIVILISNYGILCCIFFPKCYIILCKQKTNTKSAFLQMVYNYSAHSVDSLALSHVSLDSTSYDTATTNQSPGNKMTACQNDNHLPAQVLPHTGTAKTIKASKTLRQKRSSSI

With `[Ca+2].[Cl-].[Cl-]` [Ca^2+, CaCl2] the “IL-1β production, factor of increase in comparison to endotoxin (LPS) alone” value (primary CD14+ monocytes; extracellular ionized Ca2+ in combination with LPS) was 20.
With Aluminum Lactate the footpad swelling (GPRC6A) was “amplification of Carrageenan induced footpad swelling”.
“Tenascin: endogenous TLR ligand, extracellular matrix glycoprotein; Tenascin-C from Millipore” was tested, and the IL-1β production (primary CD14+ monocytes; endogenous TLR ligand in combination with increased extracellular Ca2+ concentrations) was “comparable to the Ca^2+ plus LPS induced levels”.

— patent US8680259B2, “Method and compositions for the identification of agents that have a potential effect against chronic inflammatory diseases” (Universität Leipzig, priority 2010, dated 2014)
